Reference: ChEMBL document CHEMBL5512651, “Synthesis and biological evaluation of 4-imidazolidinone-containing compounds as potent inhibitors of the MDM2/p53 interaction” (Eur J Med Chem, 2024)
Activity calls are given as the source filed them. The rule behind the calls is not given here.

Assays:
MOLM-13 [1] = assay: cells; details: Homo sapiens, MOLM-13, 48 h
A549 = assay: cells; details: Homo sapiens, A549, 96 h
MOLM-13 [2] = assay: Induction of apoptosis in human MOLM-13 cells at 0.375 to 6 uM incubated for 24 hrs by Western blot analysis; format: functional, cell-based; details: dose 0.375-6 µM
SW480 = assay: cells; details: Homo sapiens, SW480, 96 h
[3] = Antiproliferative activity against HEK293 cells incubated for 4 days by CCK8 assay; format: toxicity, cell-based; details: human
HeLa = assay: cells; details: Homo sapiens, 96 h
[4] = target: Tumour suppressor protein p53/Mdm4 (Homo sapiens, UniProt O15151); assay: Inhibition of MDM4/p53 (unknown origin) interaction by fluorescence polarization assay; format: protein assay
Chain of Tumour suppressor protein p53/Mdm4 (P04637 whole entry): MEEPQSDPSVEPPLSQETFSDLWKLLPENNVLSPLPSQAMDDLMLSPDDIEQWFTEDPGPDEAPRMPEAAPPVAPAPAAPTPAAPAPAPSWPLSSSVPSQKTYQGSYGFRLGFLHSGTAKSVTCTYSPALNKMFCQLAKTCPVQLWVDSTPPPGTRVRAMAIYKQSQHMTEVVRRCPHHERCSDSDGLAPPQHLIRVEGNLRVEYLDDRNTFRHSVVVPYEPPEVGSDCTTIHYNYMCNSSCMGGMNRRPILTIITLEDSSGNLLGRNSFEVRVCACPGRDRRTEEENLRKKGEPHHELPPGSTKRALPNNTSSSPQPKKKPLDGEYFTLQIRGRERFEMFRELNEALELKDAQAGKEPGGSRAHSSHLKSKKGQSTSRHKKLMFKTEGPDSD
Chain of Tumour suppressor protein p53/Mdm4 (O15151 whole entry): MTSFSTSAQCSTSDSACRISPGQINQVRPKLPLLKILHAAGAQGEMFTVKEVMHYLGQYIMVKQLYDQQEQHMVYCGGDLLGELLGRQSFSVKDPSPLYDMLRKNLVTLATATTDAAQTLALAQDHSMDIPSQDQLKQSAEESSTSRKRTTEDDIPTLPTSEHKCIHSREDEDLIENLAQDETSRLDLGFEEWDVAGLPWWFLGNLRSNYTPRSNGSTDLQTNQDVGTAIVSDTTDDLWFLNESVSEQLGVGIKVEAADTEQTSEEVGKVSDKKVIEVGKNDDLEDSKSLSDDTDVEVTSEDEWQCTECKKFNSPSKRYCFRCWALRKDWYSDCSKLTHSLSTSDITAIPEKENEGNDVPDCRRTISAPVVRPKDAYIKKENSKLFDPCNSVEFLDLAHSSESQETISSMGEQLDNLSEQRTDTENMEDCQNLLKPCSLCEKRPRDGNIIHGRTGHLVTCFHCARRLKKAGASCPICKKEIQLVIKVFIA

[5] = target: Tumour suppressor p53/oncoprotein Mdm2 (Homo sapiens, UniProt Q00987); assay: Inhibition of MDM2/p53 (unknown origin) interaction by fluorescence polarization assay; format: protein assay
Chain of Tumour suppressor p53/oncoprotein Mdm2 (P04637 whole entry): as the sequence (P04637 whole entry) above
Chain of Tumour suppressor p53/oncoprotein Mdm2 (Q00987 whole entry): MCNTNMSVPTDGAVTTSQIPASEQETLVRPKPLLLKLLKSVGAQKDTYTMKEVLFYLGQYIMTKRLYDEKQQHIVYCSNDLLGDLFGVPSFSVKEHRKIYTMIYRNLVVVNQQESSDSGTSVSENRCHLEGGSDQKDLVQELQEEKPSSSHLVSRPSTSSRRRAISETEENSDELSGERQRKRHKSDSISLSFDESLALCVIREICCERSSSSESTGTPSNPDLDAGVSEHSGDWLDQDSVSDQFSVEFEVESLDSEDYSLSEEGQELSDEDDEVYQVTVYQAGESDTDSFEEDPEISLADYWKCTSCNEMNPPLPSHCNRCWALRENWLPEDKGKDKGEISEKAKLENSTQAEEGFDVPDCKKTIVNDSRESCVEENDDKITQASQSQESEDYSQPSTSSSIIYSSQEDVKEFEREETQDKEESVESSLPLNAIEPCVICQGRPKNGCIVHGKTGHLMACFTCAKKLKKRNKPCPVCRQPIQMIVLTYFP

HCT-116 = assay: cells; details: Homo sapiens, HCT-116, 96 h
MOLM-13 [6] = assay: Induction of apoptosis in human MOLM-13 cells assessed as increase in caspase-3 level at 0.15 to 0.6 uM incubated for 24 hrs by Western blot analysis; format: functional, cell-based; details: dose 0.15-0.6 µM
[7] = Selectivity index, ratio of IC50 for HEK293 cells to IC50 for human SW480 cells
[8] = Selectivity index, ratio of IC50 for HEK293 cells to IC50 for human HeLa cells; format: toxicity; details: HEK293 cells versus HeLa cells, read-out: Ratio IC50
[9] = target: Cellular tumor antigen p53 (Homo sapiens) (UniProt P04637); assay: Activation of p53 pathway in human MOLM-13 cells assessed as increase in p21 mRNA level incubated for 24 hrs by qPCR analysis; format: cell-based; details: filed as activator, dose 0.038-0.6 µM
Chain of Cellular tumor antigen p53 (Homo sapiens) (P04637 whole entry, looked up): as the sequence (P04637 whole entry) above

[10] = target: Cellular tumor antigen p53 (Homo sapiens) (UniProt P04637); assay: Activation of p53 pathway in human MOLM-13 cells assessed as increase in BAX mRNA level incubated for 24 hrs by qPCR analysis; format: cell-based; details: filed as activator, dose 0.038-0.6 µM
[11] = target: Cellular tumor antigen p53 (Homo sapiens) (UniProt P04637); assay: Activation of p53 pathway in human MOLM-13 cells assessed as increase in p53 level incubated for 24 hrs by Western blot analysis; format: cell-based; details: filed as activator, dose 0.038-0.6 µM
[12] = target: Cellular tumor antigen p53 (Homo sapiens) (UniProt P04637); assay: Activation of p53 pathway in human MOLM-13 cells assessed as increase in p21 level incubated for 24 hrs by Western blot analysis; format: cell-based; details: filed as activator, dose 0.038-0.6 µM
[13] = target: Cellular tumor antigen p53 (Homo sapiens) (UniProt P04637); assay: Activation of p53 pathway in human MOLM-13 cells assessed as increase in MDM2 mRNA level incubated for 24 hrs by qPCR analysis; format: cell-based; details: filed as activator, dose 0.038-0.6 µM
MOLM-13 [14] = assay: Induction of apoptosis in human MOLM-13 cells assessed as increase in PARP cleavage at 0.15 to 0.6 uM incubated for 24 hrs by Western blot analysis; format: functional, cell-based; details: dose 0.15-0.6 µM
[15] = Selectivity index, ratio of IC50 for HEK293 cells to IC50 for human A549 cells; format: toxicity; details: HEK293 cells versus A549 cells, read-out: Ratio IC50
[16] = target: Cellular tumor antigen p53 (Homo sapiens) (UniProt P04637); assay: Activation of p53 pathway in human MOLM-13 cells assessed as increase in MDM2 level incubated for 24 hrs by Western blot analysis; format: cell-based; details: filed as activator, dose 0.038-0.6 µM
[17] = target: Cellular tumor antigen p53 (Homo sapiens) (UniProt P04637); assay: Activation of p53 pathway in human MOLM-13 cells assessed as increase in PUMA mRNA level incubated for 24 hrs by qPCR analysis; format: cell-based; details: filed as activator, dose 0.038-0.6 µM

Row | Compound | IC50 (MOLM-13 [1]) | Ki [4] | Ki [5] | IC50 (HCT-116) | further results
1 | COc1ccc(C2=N[C@@H](c3ccc(Cl)cc3)[C@@H](c3ccc(Cl)cc3)N2C(=O)N2CCNC(=O)C2)c(OC(C)C)c1 [NUTLIN-3] | 199 nM |  |  |  | IC50 (A549): 2050 nM; Activity (MOLM-13 [2]): Active; IC50 (SW480): 16400 nM; IC50 at 4 days [3]: 26700 nM; IC50 (HeLa): 31400 nM
2 | COc1cc(C(=O)O)ccc1N1CN2[C@@H](CC(C)(C)C)[C@@]3(CNc4cc(Cl)cnc43)[C@@H](c3cccc(Cl)c3)[C@@H]2C1=O | 204 nM | 3630 nM | 1.2 nM | 610 nM | 
3 | COc1cc(C(=O)O)ccc1N1CN2[C@@H](CC(C)(C)C)[C@@]3(CNc4cc(Cl)ccc43)[C@@H](c3cccc(C)c3)[C@@H]2C1=O | 295 nM | 2170 nM | 5.2 nM | 844 nM | 
4 | COc1cc(C(=O)O)ccc1N1CN2[C@@H](CC3(C)CCOCC3)[C@@]3(CNc4cc(Cl)ccc43)[C@@H](c3cccc(Cl)c3)[C@@H]2C1=O | 139 nM | 3370 nM | 2.7 nM | 562 nM | 
5 | COc1cc(C(=O)O)ccc1N1CN2[C@@H](CC(C)(C)C(C)C)[C@@]3(CNc4cc(Cl)ccc43)[C@@H](c3cccc(Cl)c3)[C@@H]2C1=O | 33.1 nM | 1120 nM | 1.3 nM | 88.7 nM | 
6 | COc1cc(C(=O)O)ccc1N1CN2[C@@H](CC(C)(C)C)[C@@]3(CNc4cc(Cl)ccc43)[C@@H](c3cccc(F)c3)[C@@H]2C1=O | 39.8 nM | 3950 nM | 1.2 nM | 137 nM | 
7 | COc1cc(C(=O)O)ccc1N1CN2[C@@H](CC(C)(C)C)[C@@]3(CNc4cc(Cl)ccc43)[C@@H](c3cccc(Cl)c3Cl)[C@@H]2C1=O | 1370 nM | 5000 nM | 7.6 nM | 2560 nM | 
8 | COc1cc(C(=O)O)ccc1N1CN2[C@@H](CC(C)(C)C)[C@@]3(CNc4cc(Cl)ccc43)[C@@H](c3ccccc3F)[C@@H]2C1=O | 1640 nM | > 27000 nM | 14.8 nM | 3900 nM | 
9 | COc1cc(C(=O)O)ccc1N1CN2[C@@H](CC(C)(C)C)[C@@]3(CNc4cc(Cl)ccc43)[C@@H](c3cccc(Cl)c3F)[C@@H]2C1=O | 0.9 nM | 3110 nM | 3.1 nM | 49.7 nM | 
10 | COc1cc(C(=O)O)ccc1N1CN2[C@@H](CC(C)(C)C)[C@@]3(CNc4ccc(Cl)cc43)[C@@H](c3ccc(Cl)cc3)[C@@H]2C1=O | 8400 nM | > 27000 nM | > 27000 nM | 12800 nM | 
11 | CCC(C)(C)C[C@@H]1N2CN(c3ccc(C(=O)O)cc3OC)C(=O)[C@H]2[C@H](c2cccc(Cl)c2)[C@]12CNc1cc(Cl)ccc12 | 5.5 nM | 1130 nM | 1 nM | 28.5 nM | Activity (MOLM-13 [6]): Active; Ratio IC50 [7]: 1.9; selectivity ratio [8]: 0.8; IC50 (A549): 102 nM; Activity [9]: Dose-Dependent Effect; Activity [10]: Dose-Dependent Effect; Activity [11]: Dose-Dependent Effect; Activity [12]: Dose-Dependent Effect; IC50 (SW480): 4920 nM; Activity [13]: Dose-Dependent Effect; Activity (MOLM-13 [14]): Active; IC50 at 4 days [3]: 9530 nM; selectivity ratio [15]: 93; Activity [16]: Dose-Dependent Effect; IC50 (HeLa): 11800 nM; Activity [17]: Dose-Dependent Effect
12 | COc1cc(C(=O)O)ccc1N1CN2[C@@H](CC(C)(C)C)[C@@]3(CNc4cc(Cl)ccc43)[C@@H](c3ccc(Cl)cc3)[C@@H]2C1=O | 2200 nM | > 27000 nM | 27.9 nM | 2580 nM | 
13 | COc1cc(C(=O)O)ccc1N1CN2[C@@H](CC3(C)CCCC3)[C@@]3(CNc4cc(Cl)ccc43)[C@@H](c3cccc(Cl)c3)[C@@H]2C1=O | 17 nM | 734 nM | 0.6 nM | 121 nM | 
14 | COc1cc(C(=O)O)ccc1N1CN2[C@@H](CC3(C)CCC3)[C@@]3(CNc4cc(Cl)ccc43)[C@@H](c3cccc(Cl)c3)[C@@H]2C1=O | 380 nM | 1770 nM | 1 nM | 598 nM | 
15 | CC(C)(C)C[C@@H]1N[C@@H](C(=O)N[C@H]2CC[C@H](O)CC2)[C@H](c2cccc(Cl)c2F)[C@]12C(=O)Nc1cc(Cl)ccc12 [SAR-405838] | 115 nM | 36800 nM |  | 227 nM | 
16 | COc1cccc([C@H]2[C@@H]3C(=O)N(c4ccc(C(=O)O)cc4OC)CN3[C@@H](CC(C)(C)C)[C@@]23CNc2cc(Cl)ccc23)c1 | 944 nM | > 27000 nM | 5.3 nM | 1420 nM | 
17 | COc1cc(NC(=O)[C@@H]2N[C@@H](CC(C)(C)C)[C@](C#N)(c3ccc(Cl)cc3F)[C@H]2c2cccc(Cl)c2F)ccc1C(=O)O | 24.8 nM | 1690 nM |  | 104 nM | IC50 (A549): 373 nM; IC50 (SW480): 5460 nM; IC50 at 4 days [3]: 9080 nM; IC50 (HeLa): 13200 nM
18 | CCN1[C@@H](CC(C)(C)C)[C@@]2(CNc3cc(Cl)ccc32)[C@@H](c2cccc(Cl)c2)[C@@H]1C(=O)Nc1ccc(C(=O)O)cc1OC | 0.2 nM |  |  | 13.6 nM | 
19 | COc1cc(C(=O)O)ccc1N1CN2[C@@H](CC(C)(C)C)[C@@]3(CNc4ccc(Cl)cc43)[C@@H](c3cccc(Cl)c3Cl)[C@@H]2C1=O | 7590 nM | > 27000 nM | 152 nM | 9740 nM | 
20 | COc1cc(C(=O)O)ccc1N1CN2[C@@H](CC3(C)CCCCC3)[C@@]3(CNc4cc(Cl)ccc43)[C@@H](c3cccc(Cl)c3)[C@@H]2C1=O | 35.5 nM | > 27000 nM | 2.7 nM | 136 nM | 
21 | COc1cc(C(=O)O)ccc1N1CN2[C@@H](CC(C)(C)C)[C@@]3(CNc4ccc(Cl)cc43)[C@@H](c3ccccc3Cl)[C@@H]2C1=O | 7280 nM | > 27000 nM | 1090 nM | 12700 nM | 
22 | COc1cc(C(=O)O)ccc1N1CN2[C@@H](CC(C)(C)C)[C@@]3(CNc4cc(Cl)ccc43)[C@@H](c3ccccc3Cl)[C@@H]2C1=O | 5490 nM | > 27000 nM | 32.8 nM | 9060 nM | 
23 | COc1cc(C(=O)O)ccc1N1CN2[C@@H](CC(C)(C)C)[C@@]3(CNc4cc(Cl)ccc43)[C@@H](c3cccc(F)c3F)[C@@H]2C1=O | 56.5 nM | > 27000 nM | 3.1 nM | 285 nM | 
24 | COc1cc(C(=O)O)ccc1N1CN2[C@@H](CC(C)(C)C)[C@@]3(CNc4cc(Cl)ccc43)[C@@H](c3cccc(C(F)(F)F)c3)[C@@H]2C1=O | 6280 nM | 5740 nM | 50.5 nM | 6860 nM | 
25 | COc1cc(C(=O)O)ccc1N1CN2[C@@H](CC(C)(C)C)[C@@]3(CNc4cc(Cl)ccc43)[C@@H](c3ccc(F)cc3)[C@@H]2C1=O | 529 nM | > 27000 nM | 9.6 nM | 1300 nM | 
26 | CCC(C)(CC)C[C@@H]1N2CN(c3ccc(C(=O)O)cc3OC)C(=O)[C@H]2[C@H](c2cccc(Cl)c2)[C@]12CNc1cc(Cl)ccc12 | 28.3 nM | 854 nM | 1.2 nM | 165 nM | 
27 | COc1cc(C(=O)O)ccc1N1CN2[C@@H](CC(C)(C)C)[C@@]3(CNc4ccc(Cl)cc43)[C@@H](c3cccc(Cl)c3)[C@@H]2C1=O | 2580 nM | > 27000 nM | 67.4 nM | 8620 nM | 
